Test results reported in patent publication US20130303373A1, “USE OF A COMPOSITION FOR THE INCREASE OF CROP YIELD” (GLOBACHEM, priority 2010, published 2013).

Legend:
winter wheat = test: Yield increase with wheat (ear and grain parameters); type: in vivo
Protocol: This experiment was performed on winter wheat. ABA was applied to the winter wheat in two different doses, respectively 2 and 4 gram/hectare. The dose of 2 gram was repeated in combination with 5 g/ha of histidine.
The length of the ears (expressed in mm), the number of filled spikelets, the average number of grains counted per 50 ears, and as a quality parameter also the kernel weight of 1000 […] (“1000 kernel wt”) were determined.

[1] = system: mature apple trees of the variety Jonagold, (mutant Jonagored); test: Yield increase with apple (fruit set and fruit size after spraying); type: in vivo
Protocol: This experiment was performed on mature apple trees of the variety Jonagold, (mutant Jonagored). The sprayings were performed with an atomizer, each time applying an amount of 300 liter of water per hectare.
S-abscisic acid (ABA) was applied alone as well as in combination with glutamine. The applications were started around the end of flowering and were repeated every 10 to 14 days. ABA was first applied in two consecutive treatments, each time using a concentration of 3.3 ppm wt, and thus in a dosing of 1.0 g/ha. The composition with glutamine was applied until the end of the growing season, and with a concentration of 50 ppm wt, and thus in a dosing of 15 g/ha. ABA was also in this test applied only twice, on April 24 and May 7. The applications of glutamine were started around the end of flowering and were repeated every 7 to 14 days, depending on the weather conditions. In total there were 7 treatments, more precisely on April 24, May 7, May 14, May 20, June 9, June 16 and June 24. Immediately after the treatments, on June 25, also the average fruit diameter was determined.

Compound: CC1=CC(=O)CC(C)(C)[C@@]1(O)/C=C/C(C)=C/C(=O)O [ABA, S-abscisic acid]
- 1000 kernel wt (gram) (winter wheat; ABA 2 g/ha): 43.6 gram
- Ear Length (mm) (winter wheat; ABA 2 g/ha): 75 mm
- Nr. filled spikelets (winter wheat; ABA 2 g/ha): 9.9
- Nr. grains/50 ears (winter wheat; ABA 2 g/ha): 72.4
- 1000 kernel wt (gram) (winter wheat; ABA 4 g/ha): 44.8 gram
- Ear Length (mm) (winter wheat; ABA 4 g/ha): 78 mm
- Nr. filled spikelets (winter wheat; ABA 4 g/ha): 10.2
- Nr. grains/50 ears (winter wheat; ABA 4 g/ha): 84.7
- Fruit diameter (mm) on June 25 ([1]; ABA 2 treatments at 1.0 g/ha, glutamine 7 treatments at 15 g/ha, measured June 25): 43.8 mm
- Nr of fruits per cluster ([1]; ABA 2 treatments at 3.3 ppm wt (1.0 g/ha), glutamine 7 treatments at 50 ppm wt (15 g/ha), 300 l water/ha): 0.80
